Patent EP1234575A1, “Furan fatty acids for improving the efficiency of cytostatic and/or radiation therapy” (Deigner, Hans-Peter, Dr., priority 2001, dated 2002)

How the values were obtained:
[1] = system: Nierenkarzinomzelllinie (RENCA); assay: Apoptosis in RENCA renal carcinoma cells: FFS alone or 2 h FFS pre-incubation followed by a cytostatic (YO-PRO-1 positive cells, DNA laddering); format: cell-based; conditions: for Zahl apoptotischer Zellen bei 50 nM relativ zu 100 nM: 50 nM FFS versus 100 nM FFS, plus Daunorubicin; for Zahl apoptotischer Zellen bei 50 nM relativ zu 100 nM / höhere Anzahl apoptotischer Zellen im Vergleich zur Kontrolle mit Daunorubicin alleine / Konzentrationsabhängigkeit des prozentualen Anteils apoptotischer Zellen: Renca-Zellen; for höhere Anzahl apoptotischer Zellen im Vergleich zur Kontrolle mit Daunorubicin alleine: 1000 nM FFS plus Daunorubicin (1 µM per Figur 3); for Konzentrationsabhängigkeit des prozentualen Anteils apoptotischer Zellen: FFS 0 to 1000 nM plus Daunorubicin
From the text: (§1) Untersuchungen der pro- bzw. antiapoptotischen Wirkung der FFS wurden an einer Nierenkarzinomzelllinie (RENCA; Murphy et al., J. Natl. Cancer Inst. 50: 1013, 1973) durchgeführt. Dazu wurden die Zellen 22 Stunden zum einen mit einem Zytostatikum, zum anderen mit der entsprechenden FFS sowie einer Kontrolle und einer Kombination aus FFS und Zytostatikum inkubiert. Für die Substanzkombination aus FFS und Zytostatikum wurden die Zellen zwei Stunden mit der jeweiligen FFS vorinkubiert, anschließend das Zytostatikum zugegeben und danach für 24 Stunden im Brutschrank inkubiert. Die verwendeten Konzentrationen sind in Figur 3 angegeben. Diese Untersuchungen wurden mit den Verbindungen 11a/11b, 12b, 6b, 13b und 14 sowie jeweils für jedes Zytostatikum getrennt durchgeführt. Es zeigte sich bei keiner der getesteten FFS (alleinige Zugabe) eine signifikante Zunahme der Zahl apoptotischer Zellen gegenüber der Kontrolle. Bei Inkubation der Zellen mit einer FFS und anschließender Zytostatikumgabe konnten unterschiedliche Effekte beobachtet werden .
Bei den alkin-substituierten FFS wurde bei Verwendung von Daunorubicin in Kombination mit 11a eine Zunahme von 60% und in Kombination mit 11b eine Abnahme der Anzahl apoptotischer Zellen gemessen. Bei Verwendung von Vinblastin als Zytostatikum nahm bei beiden FFS 11a und 11b die Zahl apoptotischer Zellen von 60% bzw. 160% zu.
(§2) Da die FFS 11a und 11b als einzige aller synthetisierten FFS eine signifikante Zunahme an apoptotischen Zellen bei Inkubation in Kombination mit einem Zytostatikum zeigten, wurde untersucht, ob dieser Effekt von der Konzentration der FFS abhängt. Daher wurde das oben beschriebene Experiment an Renca-Zellen unter den gleichen Bedingungen, aber mit jeweils verschiedenen Konzentrationen von 11a bzw. 11b im Bereich von 0 bis 1000 nM durchgeführt (Figur 3). […] Der prozentuale Anteil apoptotischer Zellen nahm mit steigender FFS Konzentration zu und mit fallender ab. Bei Inkubation mit einer 1000 nM-Lösung wurde eine 6.1 bzw. 5.2-fach höhere Anzahl apoptotischer Zellen im Vergleich zur Kontrolle mit Daunorubicin alleine festgestellt. […] Bei Inkubation der Zellen mit FFS ohne Zytostatikum wurden auch bei hoher FFS Konzentration keine signifikante Zu- bzw. Abnahme der Apoptoserate festgestellt. Die Apoptoserate wurde routinemäßig durch Messung YO-PRO-1 positiver Zellen^5,6 DNA-Leiter-Untersuchungen ("DNA-laddering") ermittelt.

Morris-Hepatom = assay: Apoptosis in Morris hepatoma cells: FFS alone or FFS pre-incubation followed by a cytostatic; format: cell-based, Ratte
From the text: as §1
Aufgrund dieser Effekte wurde mit den alkin-substituierten FFS 11a und 11b an einer weiteren Karzinomzelllinie (Morris-Hepatom; Tumorbank DKFZ Heidelberg, TZB No. 620143, MH TC 5123, histologischer Typ: Hepatom, Herkunft/Spezies: Ratte, Buffalo) die oben beschriebenen Untersuchungen durchgeführt. Die Konzentrationen der verwendeten FFS bzw. Zytostatika sind in Figur 4 angegeben. FFS alleine zeigten auch hier keine Effekte. Bei einer Kombination aus Daunorubicin mit der FFS 11a bzw. 11b stieg die Zahl apoptotischer Zellen um 130% bzw. 60% und bei einer Kombination FFS 11a bzw. 11b mit Vinblastin um 85% bzw. 50% .
as §2

[2] = 2 h FFS pre-incubation, then Daunorubicin, 24 h, RENCA
[3] = 2 h FFS pre-incubation, then Vinblastin, 24 h, RENCA

SMILES | Zahl apoptotischer Zellen bei 50 nM relativ zu 100 nM [1] | höhere Anzahl apoptotischer Zellen im Vergleich zur Kontrolle mit Daunorubicin alleine [1] | Zunahme der Anzahl apoptotischer Zellen [1, 2] | Zunahme der Zahl apoptotischer Zellen [1, 3] | Konzentrationsabhängigkeit des prozentualen Anteils apoptotischer Zellen [1] | Anstieg der Zahl apoptotischer Zellen (Morris-Hepatom; FFS combined with Daunorubicin) | Anstieg der Zahl apoptotischer Zellen (Morris-Hepatom; FFS combined with Vinblastin) | Anzahl apoptotischer Zellen (change, in words) [1, 2] | Anzahl apoptotischer Zellen (change, in words) [1, 3]
COC(=O)CCCCCCCCC#Cc1ccc(/C=C/C(C)=O)o1 [11a, 11-[5-(3-Oxo-1-butenyl)-furan-2-yl]-10-undecinsäuremethylester] | ca. halb so groß | 6.1 fach | 60% | 60% | deutliche Konzentrationsabhängigkeit | 130% | 85% |  | 
CCC(=O)/C=C/c1ccc(CCCCCCCCCCC(=O)OC)o1 [6b, 11-[5(3-Oxo-pentenyl)-furan-2-yl]-undecansäure-methylester] |  |  |  |  |  |  |  | leichter Rückgang | leichter Rückgang
CCC(=O)/C=C/c1ccc(/C=C\CCCCCCCCC(=O)OC)o1 [12b] |  |  |  |  |  |  |  | leichter Rückgang | leichter Rückgang
CCC(=O)/C=C/c1ccc(C#CCCCCCCCCC(=O)OC)o1 [11b, 11-[5-(3-Oxo-1-pentenyl)-furan-2-yl]-10-undecinsäure-methylester] | ca. halb so groß | 5.2 fach |  | 160% | deutliche Konzentrationsabhängigkeit | 60% | 50% | Abnahme | 
CCC(=O)CCc1ccc(CCCCCCCCCCC(=O)OC)o1 [13b, 11-[5(3-Oxo-pentyl)-furan-2-yl]-undecansäure-methylester] |  |  |  |  |  |  |  | leichter Rückgang | leichter Rückgang
